Test results from patent publication US6667025B2 (Mitsubishi Pharma Corporation, priority 1997, dated 2003).

Assays:
[1] = system: skin allograft, WKAH donor and F344 recipients; assay type: in vivo
Source text: Two MHC-incompatible rat strains were selected, WKAH donor (RT1^k) and F344 recipients (RT1^IV1). Full-thickness skin grafts (2.0×2.0 cm square) were transplanted to the lateral thorax of recipients and wrapped with sterile, bactericidal gauze. The chest was then wrapped with an elastic bandage. Five days after transplantation, the wraps were removed and the grafts inspected daily for rejection. Rejection was defined as more than 90% necrosis of graft epithelium.

[2] = system: cardiac allograft, WKAH donors and ACI recipients; assay: Heterotopic cardiac allograft survival, MHC-incompatible rat strains; assay type: in vivo
[3] = system: IL-2 mRNA in alloantigen-stimulated splenic T cells; assay: IL-2 mRNA expression in allogeneic mixed lymphocyte culture (PCR); assay type: cell-based, rat; conditions: 48 hours
Experimental: The housekeeping gene HPRT was used as an internal control in order to compare levels of IL-2 mRNA levels relative to the HPRT mRNA levels, as detailed below.
Allogeneic mixed lymphocyte culture was carried out by using nylon-nonadherent spleen cells of F344 rat (RT1^1v1) as responder cells and the spleen cells of WKAH rat (RT1^k) pretreated with 40 μg/ml of mitomycin C for 30 min as stimulator cells. […] After culturing for 48 hours, the cells were recovered by centrifugation. The expression of IL-2 mRNA in the cells was determined by a polymerase chain reaction (PCR) method.
Total RNA was reverse transcribed in […] of buffer solution containing 10 mmol/L Tris-HCl (pH 8.3),50 mM KCl, 5 mM MgCl2, 1 mM each dNTP (dATP, dGTP, dTTP and dCTP), 60 U RNase inhibitor (Takara Ltd. Tokyo, Japan), 15 U avian myelobalastosis virus reverse transcriptase (Takara Ltd.) and 150 pmol random 9-mers at 30° C. for 10 min and 42° C. for 30 min. Primer sequences for IL-2 and hypoxanthine-guanine phosphoribosyltransferase (HPRT) were taken from the previous report (44).
The length in base pairs of the PCR products of IL-2 and HPRT are 351 and 608 bp respectively. […] Fluorescence intensity of the specific bands was visualized by fluorescence image analyzer (FLUOR IMAGER 575®, Molecular Dynamics).

C=CC[C@@H]1/C=C(\C)C[C@H](C)C[C@H](OC)[C@H]2O[C@@](O)(C(=O)C(=O)N3CCCC[C@H]3C(=O)O[C@H](/C(C)=C/[C@@H]3CC[C@@H](O)[C@H](OC)C3)[C@H](C)[C@@H](O)CC1=O)[C@H](C)C[C@@H]2OC [TRL, tacrolimus, reference compound]
median survival time (MST) of skin graft ([1]; 10 mg/kg for 14 days): 22.5 days
oral dose that significantly prolonged skin graft survival ([1]; oral, WKAH to F344 rats): ≥ 0.3 mg/kg
induction of long-term cardiac graft survival ([2]; even at the highest dose tested): hardly induced long-term graft survival
dose that significantly prolonged cardiac allograft survival ([2]; vs control): ≥ 1 mg/kg
concentration that inhibited IL-2 mRNA expression [3]: ≥ 1 nM
